Measured values as given in patent US6812037B1, “Antimitotic compounds” (The University of British Columbia, priority 1999, dated 2004).

How the values were obtained:
MCF-7 cells [1] = test: ELICA of mitotic cells (Enzyme-Linked Immuno-Cytochemical assay, TG-3 antibody); type: cell-based, human
Experimental: (§1) Cell Culture and Treatment. Human breast carcinoma MCF-7 cells were cultured as monolayers. The cells were seeded at 10,000 per well of 96-well polystyrene tissue culture plates (Falcon) in 200 μl medium and were allowed to grow overnight. Crude extracts of marine organisms were then added at about 10 μg/ml or 1 μg/ml, from 1000-fold stocks in dimethylsulfoxide (DMSO). Untreated samples received an equivalent amount of DMSO and several as negative controls. Cells treated with 100 ng/ml nocodazole (Sigma), from a 1000-fold stock in DMSO, served as positive controls. Cells were incubated for 16-20 hours. The relative number of cells in mitosis was then determined by microscopy, by enzyme-linked immunosorbent assay (ELISA) or by an enzyme-linked cytochemical assay (ELICA), as described below.
ELICA of Miltotic Cells. While the ELISA is accurate and reliable, it requires transferring cell lysates to ELISA plates and many solution changes. The assay of this invention is faster and easier to use for drug screening. […] In a preferred assay of this invention, cells are fixed with formaldehyde in their microtiter culture plates and permeabilized with methanol and detergents. The TG-3 primary antibody and HRP-conjugated secondary antibody may be added sequentially but are preferably added simultaneously. Colorimetric detection of HRP activity remains unchanged. This new assay is termed: an Enzyme-Linked Immuno-Cytochemical assay (ELICA).
After incubation with marine extracts, the medium was withdrawn carefully using a pipetor and 100 μl of 10 mM Tris-HCl (pH 7.4) 150 mM NaCl, containing 3.7% formaldehyde was added to fix the cells for 30 minutes at 4° C. The fixative was removed and replaced with 100 μl of cold (−20° C.) methanol for 5 minutes to permeabilize the fixed cells. The methanol was removed and the wells were rinsed briefly with 200 μl antibody buffer. Then, 100 μl antibody buffer containing 0.1-0.15 μg/ml TG-3 monoclonal antibody and HRP-conjugated goat anti-mouse IgM secondary antibody at a 50-fold dilution, was added to 16-20 hours at 4° C. The plates were washed twice with 200 μl 10 mM Tris-HCl pH 7.4, 0.02% Tween 20™. Then, 100 μl of 120 mM Na2HPO4, 100 mM citric acid (pH 4.0) containing […] 2,2′-azino-bis(-3ethylbenz-thiazoline-6-sulfonic acid) and 0.01% hydrogen peroxide was added for 1 hour at room temperature and the absorbance at 405 nm was measured.

[2] = system: SCCVII squamous cell carcinoma; test: In vivo antimitotic/anticancer activity, tumor cell survival by colony formation; set-up: species or system C3H mice
Experimental: In Vivo Antimitotic/Anticancer Activity. C3H mice of approximately 26 g bearing SCCVII squamous cell carcinoma (tumor size approximately 0.45 g) were injected intraperitoneally with desmethyleleutherobin. 24 hours later, the mice were intravenously injected with Hoechst 33342™ and then sacrificed. The tumors were removed and single cell suspensions prepared and sorted on the basis of a concentration gradient of Hoechst 33342™, to provide cells sorted according to varying distance from the blood supply. The cells were plated and survival analyzed by observing colony formation.

MCF-7 cells [3] = test: Mitotic arrest of MCF-7 cells, counting mitotic cells by microscopy (mitotic spreads); type: cell-based, human
Experimental: as §1
Screens for Antimitotic Agents. MCF-7 cells were incubated for 20 hours with different concentrations of the antimitotic drug paclitaxel, and the proportion of cells arrested in mitosis was measured by counting mitotic cells in the microscope, and by ELISA. Paclitaxel induced mitotic arrest in a concentration-dependent manner with half-maximal activity at 10 nM measured by microscopy (FIG. 1A) and at 4 nM measured by ELISA (FIG. 1B, □)
Further comparison of the antimitotic activities of eleutherobin and desmethyleleutherobin was done using microscopic examination of a standard cell spread.

MCF-7 cells [4] = test: Western blot with TG-3 antibody, densitometric scanning of the 105-kDa band; type: cell-based, human; conditions: cells treated for 20 hours with nocodazole vs cycling MCF-7 cells
Experimental: The TG-3 monoclonal antibody, originally described as a marker of Alzheimer's disease, is highly specific for mitotic cells. […] In Western blots, the antibody reacts with a 105-kDa protein identified as a mitotically phosphorylated form of nucleolin, that is present in abundance in extracts of cells treated for 20 hours with the antimitotic agent nocodazole but present at only low levels in extracts from cycling MCF-7 cells. Densitometric scanning of the bands on Western blots in these examples show a 27-fold difference in intensity between nocodazole-treated and untreated cells, corresponding well to the difference in the number of mitotic cells in the two samples: 80% for the nocodazole-treated sample and 3% for the untreated sample, as measured by microscopy.

MCF-7 cells [5] = test: ELISA of mitotic cells (TG-3 antibody); type: cell-based, human
Experimental: TG-3 also recognizes mitotic cells in EUISA. In the ELISA assay, the cells may be grown in multi-well plates, lysed and transferred to protein-binding ELISA plates for adsorption to the plastic surface. The antigen may be detected by incubating with TG-3 antibody, an HRP-conjugated secondary antibody and performing a calorimetric determination of HRP activity.
as §1, with “Cells treated with 100 ng/ml nocodazole (Sigma), from a 1000-fold stock in DMSO, served as positive controls. Cells were incubated for 16-20 hours.” left out
ELISA of Mitotic Cells. […] Finally, 100 μl of 120 mM Na2HPO4, 100 mM citric acid (pH 4.0) containing 0.5 μg/ml 2,2′-azino-bis (3-ethyl-benzthiazoline-6-sulfonic acid) and 0.01% hydrogen peroxide was added for 1 hour at room temperature and absorbance at 405 nm was determined using a Dynex MRX™ plate reader.

[6] = MCF-7 cells, FIG. 2, read-out: IC50, antimitotic activity as determined by ELICA

Question: How did the IC50 (MCF-7 cells [1]; [6]) turn out when COC(=O)/C1=C/[C@@H]2[C@@H](C(C)C)CC=C(C)[C@@H]2C[C@H](OC(=O)/C=C/c2cn(C)cn2)[C@]2(C)C=C[C@@]1(O)O2 [Sarcodictyin A, sarcodictyin A] was run?
Answer: The IC50 was ~2000 nM.

Question: How did the IC50 (MCF-7 cells [1]; [6]) turn out when CO[C@]12C=C[C@](C)(O1)[C@@H](OC(=O)/C=C\c1cn(C)cn1)C[C@H]1C(C)=CC[C@H](C(C)C)[C@H]1/C=C\2CO[C@@H]1OC[C@@H](O)[C@@H](O)[C@@H]1OC(C)=O [Z-eleutherobin] was run?
Answer: Its IC50 is ~250 nM.

Question: With CO[C@]12C=C[C@](C)(O1)[C@@H](OC(=O)/C=C/c1cn(C)cn1)C[C@@H]1[C@H](/C=C\2CO[C@@H]2OC[C@@H](O)[C@@H](O)[C@@H]2OC(C)=O)[C@@H](C(C)C)C=C[C@@]1(C)O [caribaeoside] as the molecule, how does the IC50 (MCF-7 cells [1]; [6]) read?
Answer: Its IC50 is ~20000 nM.

Question: How did the IC50 (MCF-7 cells [1]; [6]) turn out when CC(=O)O[C@@H]1[C@H](OC/C2=C/[C@@H]3[C@@H](C(C)C)CC=C(C)[C@@H]3C[C@H](OC(=O)/C=C/c3cn(C)cn3)[C@]3(C)C=C[C@@]2(O)O3)OC[C@@H](O)[C@H]1O [desmethyleleutherobin] was run?
Answer: The IC50 was ~20 nM.

Question: What about the “overt toxicity to the mice” value ([2]; intraperitoneal injection, C3H mice bearing SCCVII tumor) of the same molecule?
Answer: Its value is “no overt toxicity”.

Question: And the tumor cells killed ([2]; intraperitoneal, doses of about 100 μg or more per mouse, 24 hours, FIG. 5)?
Answer: The tumor cells killed was “about 90%”.

Question: And the IC50 (MCF-7 cells [3]; MCF-7 cells, FIG. 4, read-out: IC50, antimitotic activity by microscopic examination of a standard cell spread)?
Answer: The IC50 was ~25 nM.

Question: How did the IC50 (MCF-7 cells [1]; Homo sapiens, MCF7, read-out: IC50, antimitotic activity as determined by ELICA) turn out when CO[C@]12C=C[C@](C)(O1)[C@@H](OC(=O)/C=C/c1cn(C)cn1)C[C@H]1C(C)=CC[C@H](C(C)C)[C@H]1/C=C\2COC1OCC(O)C(O)C1OC(C)=O (stereo partly drawn) [eleutherobin] was run?
Answer: Its IC50 is ~100 nM.

Question: What about the IC50 (MCF-7 cells [3]; Homo sapiens, MCF7, read-out: IC50, antimitotic activity by microscopic examination of a standard cell spread) of the same molecule?
Answer: The IC50 was ~200 nM.

Question: Which IC50 (MCF-7 cells [1]; [6]) does the source give for CO[C@]12C=C[C@](C)(O1)[C@@H](OC(=O)/C=C/c1cn(C)cn1)C[C@H]1C(C)=CC[C@H](C(C)C)[C@H]1/C=C\2CO[C@@H]1OC[C@@H](O)[C@@H](OC(C)=O)[C@@H]1O [isoeleutherobin A] here?
Answer: The IC50 was ~50 nM.

Question: For COC(=O)Nc1nc2ccc(C(=O)c3cccs3)cc2[nH]1 [nocodazole], which “difference in band intensity between treated and untreated cells (TG-3 Western blot)” value (MCF-7 cells [4]) is on record?
Answer: The value was 27 fold.

Question: What about the “number of mitotic cells as measured by microscopy” value (MCF-7 cells [3]; cells treated for 20 hours with nocodazole, untreated sample 3%) of the same molecule?
Answer: Its value is 80%.

Question: How did the EC50 (MCF-7 cells [1]; Homo sapiens, MCF7, MCF-7 cells, FIG. 1B, read-out: half-maximal activity, mitotic arrest detected by ELICA) turn out when CC(=O)O[C@H]1C(=O)[C@@]2(C)[C@H]([C@H](OC(=O)c3ccccc3)[C@]3(O)C[C@H](OC(=O)[C@H](O)[C@@H](NC(=O)c4ccccc4)c4ccccc4)C(C)=C1C3(C)C)[C@]1(OC(C)=O)CO[C@@H]1C[C@@H]2O [paclitaxel] was run?
Answer: Its EC50 is 1.5 nM.

Question: What about the EC50 (MCF-7 cells [5]; Homo sapiens, MCF7, 20 hours incubation, FIG. 1B, read-out: half-maximal activity, mitotic arrest measured by ELISA) of the same molecule?
Answer: Its EC50 is 4 nM.

Question: And the EC50 (MCF-7 cells [3]; Homo sapiens, MCF7, MCF-7 cells, 20 hours incubation, FIG. 1A, read-out: half-maximal activity, mitotic arrest measured by microscopy)?
Answer: Its EC50 is 10 nM.

Question: For WF-1360 [Compound A], which IC50 (MCF-7 cells [5]; read-out: half-maximal antimitotic activity (IC50) as determined by ELISA) is on record?
Answer: Its IC50 is 52 nM.

Question: caribaeolin was tested. Which IC50 (MCF-7 cells [1]; [6]) did it give?
Answer: The IC50 was ~20000 nM.

Question: desacetyleleutherobin was tested. Which IC50 (MCF-7 cells [1]; [6]) did it give?
Answer: The IC50 was ~400 nM.
